No end group written: not given here.
Tests used:
Assay type in all cases: cell-based, human
[1] = tested on: PBMCs of healthy adults reactive to the anti-HLA-A*24 antibody; assay: Induction of specific CTLs from PBMCs, method for quantifying cells producing intracellular IFNγ; parameters: key to specific CTL induction, cytokine quantification method: ∘: “open circle” indicates that the use of a candidate peptide enabled specific CTLs to be induced; x: “cross” indicates that specific CTLs was unable to be induced; conditions: for peptide-specific cytokine production in PBMCs derived from ten people with HLA-A*24 molecule: summary of Table 2; for CD8-positive, IFNγ-positive (producing) cells in UR: restimulation with the same peptide as used in the induction, % in PBMCs; for number of persons with peptide-specific IFNγ production / CTL induction: ten persons tested
Protocol: This induction method induces CTLs by adding peptides to culture media of PBMCs. Peptides are presented on antigen-presenting cells present among PBMCs, such as dendritic cells, B cells, macrophages, and certain types of T cells, whereby CTL precursor cells in PBMCs are stimulated to proliferate.
Peripheral blood collected from healthy adults that were reactive to the anti-HLA-A*24 antibody was centrifuged at 3,000 rpm for 5 to 10 minutes. The resulting supernatant plasma was collected. The non-plasma portion was processed according to a conventional method to isolate PBMCs. The characteristic of the present method is the addition of several % of plasma to an induction medium. In the present invention, a favorable result was obtained by adding 5% plasma. The medium is prepared by adding appropriate additives and antibiotics to a medium commonly used for cell culture. The CTL induction medium used in the present invention was RPMI1640 Hepes modify (Sigam) supplemented with 2-mercapotethanol, L-glutamine, and the antibiotics streptomycin and penicillin. In addition to these, insulin, transferrin, selenious acid, pyruvic acid, human serum albumin, solution of non-essential amino acids, and the like may be added. 1 to 3×10^6 PBMCs were suspended in 1 to 2.5 ml of the culture medium. A candidate peptide was added to the cells at a concentration of 1 to 20 μg/ml. The concentration of peptide can be altered depending on the solubility of the peptide. The peptide was added at 10 μg/ml. After two days, IL-2 was added at a final concentration of 20 to 100 U/ml. Round-bottomed culture dishes that allow the exchange of carbon dioxide gas are preferably used to co-culture PBMCs with peptides. In the context of the present invention, 14-ml round-bottomed polypropylene tubes (Becton Dikinson) or 96-well U-bottomed cell culture microtest plates (Becton Dikinson) were used. The adenovirus-specific CTLs were confirmed after about two and four weeks of culture. The cells were stimulated again with the peptide at 10 μg/ml after about two weeks of culture. When the induction of adenovirus-specific CTLs was confirmed, the cells were further stimulated with peptide-pulsed antigen-presenting cells to establish CTL lines.
Approximately 1/10 to all of the cells induced by the above-described method were transferred into 96-well U-bottomed cell culture microtest plates, and the peptide used for the induction was added thereto at a final concentration of 0.01 to 0.05 μg/ml. Then, an intracellular protein transport inhibitor (for example, brefeldin A, monensin, or such) was added, and the cells were cultured in a 5% CO2 incubator at 37° C. for 5 to 16 hours. After culture, the cells were washed, and phycoerythrin (PE)-labeled MHC-tetramer reagent and phycoerythrin-Cy5(PC5)-labeled CD8 antibody (Beckman Coulter) were added thereto. The resulting mixture was allowed to stand at room temperature for 15 to 30 minutes. After washing, the cells were fixed with 4% formaldehyde at 4° C. for 15 minutes and washed with an excess amount of washing solution. After membrane permeabilization treatment with 0.1% saponin, an FITC-labeled anti-IFNγ antibody (Beckman Coulter) was added, and reacted at room temperature for 15 to 30 minutes. After washing, the proportion of IFNγ-positive cells in T cells or MHC-tetramer reagent-positive cells was determined using a flow cytometer.
PBMCs derived from ten people with HLA-A*24 molecule were tested using 10 types of peptides. […] Thus, these six types of candidate epitope peptides serve as adenovirus-specific CTL epitope peptides. Since the adenovirus-specific CTL epitope peptides have the HLA-A*24-binding motif, they are likely to be HLA-A*2402-restricted epitope peptides, which are carried by 60% or more of the Japanese people. In the context of the results described above, MHC-tetramer reagents were synthesized using five types of epitope peptides, and their utility was tested.

[2] = tested on: CTLs with target cells expressing HLA-A*24 molecules; assay: Confirmation of CTLs by ELISPOT assay (IFNγ spots); conditions: FIG. 4
Protocol: A commercially available ELISPOT assay kit (for example, MABTECH Co.) may be purchased, and the assay can be performed according to the manufacturer's protocol. Alternatively, the assay may also be carried out by the following procedure. 96-well MultiScreen-HA plates (Millipore Co.) were coated with an anti-IFNγ monoclonal antibody (R&D Systems Co.) at 4° C. for overnight. Each well was washed with PBS. Target cells were plated into each well. Any cells expressing HLA-A*24 molecules on their surface can be used as the target cells. For example, T2-A24, a cultured cell which a gene of HLA-A*24 molecule is introduced into a 174CEM.T2 cell, can be used. Alternatively, EBV-infected LCLs expressing HLA-A*24 molecules on their surface can be used as the target cells. These target cells were added into each well with a candidate peptide for adenovirus-specific CTL epitopes or a negative control (HIV) peptide. The mixtures were allowed to stand at room temperature for 30 minutes. Then, an adequate number of CTLs were added, and the mixtures were cultured in a 5% CO2 incubator at 37° C. for 20 hours. CTLs that responded to the candidate epitope peptide secreted IFNγ during this culture period, and the IFNγ bound to the anti-IFNγ monoclonal antibody that was coated on the plates. After culturing was completed, the plates were washed with PBS containing 0.05% Tween-20. Then, an anti-IFNγ polyclonal antibody (Genzyme Co.) and peroxidase-labeled goat anti-rabbit IgG serum were allowed to react in this order at room temperature for 90 minutes each. Furthermore, 3-amino-9-ethylcarbasole (Sigma), a peroxidase substrate, and 0.1M sodium acetate buffer (pH 5.0) containing 0.015% H2O2 was added to each well, and the plates were incubated at room temperature for 40 minutes to visualize the IFNγ spots. The spots were counted under a stereomicroscope.
The spots were counted under a stereomicroscope, and were plotted on a graph.

[3] = tested on: CTL line induced by TYF (PBMCs from ID*24-8); assay: Cross-reactivity of the TYF-induced CTL line to the subgroup C-specific CTL epitope; conditions: PBMCs from ID*24-8 stimulated with TYF for 13 days
Description: As shown in FIG. 11-4, there are amino acid mutations at the fourth and sixth positions in TYF identified in the present invention as compared to the subgroup C-specific CTL epitopes. Thus, the cross-reactivity to subgroup C-specific CTL epitope ([…] (SEQ ID NO: 14); mutated amino acids are underlined) (Leen A M, Sili U, Vanin E F, Jewell A M, Xie W, Vignali D, Piedra P A, Brenner M K, Rooney C M. Conserved CTL epitopes on the adenovirus hexon protein expand subgroup cross-reactive and subgroup-specific CD8+ T cells. Blood. 104:2432-2440 (2004)) was examined using a CTL line induced by TYF.
PBMCs prepared from ID*24-8 were stimulated with TYF for 13 days, and then restimulated with TYF or […] (SEQ ID NO: 14) to examine whether the CTL line produces IFNγ.

[4] = tested on: peripheral blood / PBMCs / peptide-induced CTL lines of HLA-A*24 donors; assay: Staining of peripheral blood, PBMCs or peptide-induced CTL lines with MHC-tetramer reagents
Protocol: MBL Co. where the present inventors are affiliated with has acquired exclusive patent licensing rights in Japan for MHC-tetramer reagents (U.S. Pat. No. 5,635,363; French Application No. FR9911133; and U.S. Pat. Nos. 5,723,584, 5,874,239, 5,932,433, and 6,265,552) from Beckman Coulter Co. Based on the patents, PE-labeled MHC-tetramer reagents were prepared using adenovirus-specific CTL epitope peptides and HLA-A*2402 molecules.
Adenovirus-specific CTLs quantification was carried out using MHC-tetramer reagents that was prepared using CTL epitope peptides of the present invention, with peripheral blood, PBMCs isolated from peripheral blood, CTL lines induced using CTL epitope peptides as samples. Examples of quantification using PE-labeled MHC-tetramer reagents are described below. Labelling dyes may be used in an appropriate combination depending on the type of flow cytometer to be used, and is not limited to the examples described below.
Ten μl of a PE-labeled MHC-tetramer reagent, 20 μl of an FITC-labeled antibody for T cell (for example, CD8, CD4, or CD3), and such were added to 200 μl of collected peripheral blood. A CD45 antibody labeled with PC5 or such may also be added to eliminate nonspecific fluorescence due to contaminated erythrocytes. After gentle mixing, the mixture was allowed to stand at room temperature for 30 minutes. OptiLyse B was added, and erythrolysis and fixation was carried out according to the manufacturer's protocol. Two ml of PBS was added, stirred, and the cells were centrifuged at 400×g for 5 minutes. After the supernatant was removed by aspiration, the cells were resuspended in 500 μl of PBS and analyzed using a flow cytometer within 24 hours.
Ten μl of a PE-labeled MHC-tetramer reagent, 20 μl of an FITC-labeled T cell surface antibody (for example, CD8, CD4, or CD3), and such were added to an appropriate amount of PBMCs (10^5 to 10^6 cells) or a CTL line induced by use of CTL epitope peptides. A CD45 antibody labeled with PC5 or such may also be added to eliminate nonspecific fluorescence due to contaminated erythrocytes. After gentle mixing, the cells were allowed to stand at room temperature for 30 minutes. Three ml of PBS was added, stirred, and the cells were centrifuged at 400×g for 5 minutes. After the supernatant was removed by aspiration, the cells were resuspended in 500 μl of PBS. When a CTL line is used, 7-AAD Viability Dye (Non-viable cell detection reagent; MBL Co.) may be added to eliminate nonspecific fluorescence caused by non-viable cells. The cells were analyzed using a flow cytometer within 24 hours.
The results of staining obtained using the five types of MHC-tetramer reagents used to prepare the peptide-induced CTL lines are shown in FIG. 5.

Sequence | specific CTL induction, cytokine quantification method ([1]; donor ID *24-1) | specific CTL induction, cytokine quantification method ([1]; donor ID *24-2) | specific CTL induction, cytokine quantification method ([1]; donor ID *24-3) | specific CTL induction, cytokine quantification method ([1]; donor ID *24-5) | specific CTL induction, cytokine quantification method ([1]; donor ID *24-8) | specific CTL induction, cytokine quantification method ([1]; donor ID *24-10) | specific CTL induction, cytokine quantification method ([1]; donor ID *24-11) | specific CTL induction, cytokine quantification method ([1]; donor ID *24-12) | specific CTL induction, cytokine quantification method ([1]; donor ID *24-13) | specific CTL induction, cytokine quantification method ([1]; donor ID *24-14) | peptide-specific cytokine production in PBMCs derived from ten people with HLA-A*24 molecule [1] | IFNγ spots in ELISPOT assay compared with the negative control (HIV) peptide [2] | CD8-positive, IFNγ-positive (producing) cells in UR ([1]; donor *24-12) | number of persons with peptide-specific IFNγ production / CTL induction [1] | other results
LYANSAHAL | x | x | ∘ | x | ∘ | x | x | x | x | x | induce cytokine production in a peptide-specific manner | IFNγ spots were observed |  |  | specific CTL induction confirmed by CD8-positive, IFNγ-positive cells versus HIV peptide ([1]; donor ID*24-8, FIG. 3a-d): induced specific CTLs
LYSNVALYL | x | x | x | x | x | x | x | ∘ | ∘ | x | induce cytokine production in a peptide-specific manner | IFNγ spots were observed | 2.95% | two of the ten persons | specific CTL induction confirmed by CD8-positive, IFNγ-positive cells versus HIV peptide ([1]; donor ID*24-12, FIG. 3e-h): specific CTL induction was confirmed
TYFSLNNKF (An artificially synthesized epitope peptide sequence) [reference compound] |  |  |  |  |  |  |  |  |  |  |  |  |  |  | IFNγ production of the CTL line induced by TYF on restimulation with the named peptide [3]: did not produce IFNγ; CD8-positive and TYF-Tet-positive cells ([3]; restimulated with the named peptide): 1.97%
TYPVLEEMF [EBV BRLF1, reference compound] | ∘ | ∘ | ∘ | x | ∘ | ∘ | ∘ | ∘ | ∘ | ∘ |  |  | 9.57% | nine of ten persons | CD8-positive, IFNγ-positive (producing) cells in UR ([1]; donor *24-8): 24.9%; specific CTLs (CD8-positive MHC-tetramer reagent-positive cells, UR) ([4]; donor ID*24-2, 13 days stimulation with the peptide, then HIV peptide added, % of whole viable cells): 13.0%; positive rate: CD8-positive, MHC-tetramer reagent-positive cells to viable cells ([4]; donor ID*24-8, PBMCs cultured with the epitope peptide for 10 days (day 10)): 15.6%; positive rate: CD8-positive, MHC-tetramer reagent-positive cells to viable cells ([4]; donor ID*24-8, immediately after blood collection (day 0)): 0.03%; increase of the positive rate from day 0 to day 10 ([4]; donor ID*24-8, ten days of culture with the peptide): about 520 times

Reference: US20090142363A1, “CYTOTOXIC T-CELL EPITOPE PEPTIDE AND USE THEREOF” (priority 2005, published 2009)
